In US20030157194A1, “Method for treating cellulite” (priority 2002, published 2003):

How the values were obtained:
[1] = test system: cellulite-affected skin; experiment: topical treatment of cellulite-affected skin on thighs and buttocks of female persons by gliding a solid salt block; format: in vivo, human
[2] = test system: cellulite-affected skin; experiment: topical treatment of cellulite-affected skin on the sides of a test subject by gliding a solid salt block; format: in vivo, human; settings: person
Source text: […] This person may be a afflicted with cellulite on their sides, between their armpits and their waist.
Rather, […] sides are left moistened. Then, […] areas of his sides, by very gently gliding the block in dabbing motions, circular motions, up and down motions, or zigzag motions (the motions being insufficient to cause debridement and abrasion of the affected skin) on the moistened areas for about 15 to about 30 seconds. […]
This once daily application is continued for 5 weeks.

[Cl-].[Na+] [NaCl, sodium chloride]
state of cellulite on continued application ([1]; female, continued once per day application after 5 weeks): remained free of cellulite | state of cellulite at the end of 2 weeks ([1]; person, pre-moistened skin, once daily application for about 15 to 30 seconds, end of 2 weeks): alleviated | state of cellulite at the end of 5 weeks ([1]; person, pre-moistened skin, once daily application, end of 5 weeks): completely eliminated | state of cellulite on continued application ([2]; continued once per day application after 5 weeks): remain smooth and free of cellulite | state of cellulite at the end of 5 weeks ([2]; pre-moistened skin, once daily, end of 5 weeks): completely eliminated
